{
  "source": "patent EP4417202A1",
  "about": "“ANTI-CANCER ACTION OF BAG1-SELECTIVE IMIDAZOPYRIDINE COMPOUNDS IN STEROID HORMONE RECEPTOR-POSITIVE BREAST AND PROSTATE CANCER” (Karlsruher Institut für Technologie, priority 2023, dated 2024)",
  "key": {"MCF-7 and T47D cells": {"tested_on": "MCF-7 and T47D cells", "assay": "Apoptosis assessment, 7-AAD and Annexin V double staining", "type": "cell-based", "conditions": "1 µM, 48 h", "experimental": "Induction of apoptosis in response to treatment with X15695 was analyzed in MCF-7 and T47D cells using PE Annexin V Apoptosis Detection Kit with 7-AAD (BD Bioscience, San Diego, CA, USA) according to the manufacturer's protocol. In short, cells were harvested by trypsinization, and single cell suspensions (1×10^6 cells) were prepared as described above in 100 µl PBS. Cells were stained with 5 µl PE Annexin V and 5 µl 7-AAD for 15 min at room temperature in the dark. Subsequently, 400 µl PBS were added to each sample and flow cytometry measurements were performed within one hour. Cells stained with PE Annexin V or 7-AAD alone were used for compensation. Flow cytometry analysis was performed using BD FACSAria (BD Biosciences, Franklin Lakes, NJ, USA). Flow cytometry data were analyzed using FlowJo 10.8.1 cytometry analysis software (FlowJo, LLC)."}, "[1]": {"tested_on": "reactive oxygen species (ROS)", "assay": "Reduced 2',7'-dichlorofluorescein (DCF) diacetate oxidation assay", "type": "cell-based", "conditions": "48 h", "experimental": "For measurements of ROS levels, MCF-7 and T47D cells were seeded at 1×10^3 cells in RPMI 1640 supplemented with 10% FBS and treated with 10^-9 - 10^-6 M X15695 for 48 h. Afterwards, cells were loaded with 10 µM) H2DCF-DA (Thermo Fisher Scientific, Karlsruhe, Germany) in phenol red-free medium for 40 min. Cells were subsequently washed with medium and further incubated in medium for 120 min before analysis of fluorescence at 485 nm excitation and 530 nm emission using a multi-well fluorescence reader (SpectraMax iD3, Molecular Devices with SoftMax Pro 7 software, Biberach an der Riss, Germany). After the DCF assay, cells were frozen at -80°C overnight. After thawing, DNA was stained with a Hoechst dye (10 µg/ml final concentration) for 30 min at room temperature and fluorescence was measured at 352 nm excitation and 454 nm emission in a multi-well fluorescence reader (SpectraMax iD3, Molecular Devices with SoftMax Pro 7 software, Biberach an der Riss, Germany). DCF fluorescent intensities were normalized to Hoechst fluorescent intensities."}, "BAG1L": {"molecular_target": "T1, BAG1L (Homo sapiens, UniProt Q99933)", "T1 construct": "endogenous in cells; host or cells: MCF-7", "assay": "Cellular thermal shift assay (Tagg-CETSA) in MCF-7 cells", "type": "binding", "conditions": "1 µM, 1 h", "experimental": "(§1) To determine the aggregation temperature (Tagg-CETSA), MCF-7 cells were harvested and resuspended at a concentration of 2×10^6 cells/ml. X15695 (1 µM) or the same volume of DMSO were added to the cell suspension and incubated for 1 h at 37°C. Cells were washed and resuspend with phosphate-buffered saline (PBS) to a final concentration of 3×10^7 cells/ml. The cell suspension was evenly distributed into different tubes and treated with a gradient of temperature ranging from 37 to 62°C for 3 min. Cells were incubated 3 min at room temperature to ensure a uniform temperature between different tubes and then snap frozen with liquid nitrogen. Cells were lysed by freeze/thaw cycles with liquid nitrogen and centrifuged at 20,000 g for 20 min. Stable BAG proteins present in the supernatant were quantified by Western blotting using an anti-BAG1, 2, 3, and 5 antibodies and β-actin antibody for loading control."}, "BAG1": {"molecular_target": "T2, BAG1 (Homo sapiens, UniProt Q99933)", "T2 construct": "endogenous in cells; host or cells: MCF-7", "T2 sequence (Q99933 116-345)": "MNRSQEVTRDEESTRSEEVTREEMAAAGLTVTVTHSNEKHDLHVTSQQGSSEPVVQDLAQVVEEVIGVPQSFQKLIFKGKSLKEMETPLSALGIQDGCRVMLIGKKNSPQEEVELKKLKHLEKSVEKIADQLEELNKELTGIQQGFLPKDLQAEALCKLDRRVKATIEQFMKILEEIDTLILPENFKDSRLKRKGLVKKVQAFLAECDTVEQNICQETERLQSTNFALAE", "assay": "Cellular thermal shift assay (Tagg-CETSA) in MCF-7 cells", "type": "binding", "conditions": "1 µM, 1 h", "experimental": "as §1"}, "BAG1M": {"molecular_target": "T3, BAG1M (Homo sapiens, UniProt Q99933)", "T3 construct": "endogenous in cells; host or cells: MCF-7", "T3 sequence (Q99933 72-345)": "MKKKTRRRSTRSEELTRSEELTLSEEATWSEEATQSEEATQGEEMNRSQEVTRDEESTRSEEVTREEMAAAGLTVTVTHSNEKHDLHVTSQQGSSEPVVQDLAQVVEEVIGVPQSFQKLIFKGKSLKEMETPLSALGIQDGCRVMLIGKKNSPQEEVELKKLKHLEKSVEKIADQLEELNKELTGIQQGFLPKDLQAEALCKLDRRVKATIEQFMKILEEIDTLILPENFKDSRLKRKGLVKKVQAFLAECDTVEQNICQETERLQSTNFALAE", "assay": "Cellular thermal shift assay (Tagg-CETSA) in MCF-7 cells", "type": "binding", "conditions": "1 µM, 1 h", "experimental": "as §1"}, "ERα": {"tested_on": "ERα", "experimental": "For Western blotting, cells were lysed in NP-40 lysis buffer (1% NP-40, 50 mM Tris-HCl, pH 8.0, 150 mM NaCl, 5 mM EDTA) or 1× passive lysis buffer (Promega, Germany) for 15 min on ice. Cell debris was removed by centrifugation at 13,000 rpm for 10 min and used for SDS-polyacrylamide gel electrophoresis (PAGE) and Western blotting.\nWestern Blotting was carried out using standard protocols with antibodies: p53 (clone DO1), p53 (Sp5, Thermo Fisher Scientific Karlsruhe, Germany), Mdm2 (4B2, Abcam, Cambridge, UK). […] Secondary goat anti-mouse and goat anti-rabbit antibodies were purchased from DAKO (Bollschweil, Germany)."}, "[2]": {"tested_on": "AR target gene expression", "assay": "Quantitative RT-PCR of AR target genes in LNCaP cells", "type": "cell-based", "conditions": "10 nM DHT, 16 h, compared among the six selected imidazopyridines", "experimental": "MCF-7, T47D and LNCaP cells (5×10^4 each) were seeded in 6-well plates and cultured with hormone-depleted medium for 3 days. Subsequently, the MCF-7 and T47D cells were treated with 10 nM 17-β-estradiol (E2) or dihydrotestosterone (DHT) for the LNCaP cells, 1 µM) X15695 (for the MCF-7 and T47D cells) or 5 µM) for LNCaP cells and X15695 together with E2 or DHT. A 1 h pre-treatment with X15695 was performed prior to treatment with E2 or DHT for 16 h. RNA was extracted using innuPREP RNA mini Kit 2.0 (Analytic Jena, Berlin, Germany). 1 µg RNA per sample was used as input material for the RNA sample preparations. Sequencing libraries were generated using NEBNext® UltraTM RNA Library Prep Kit for Illumina® (NEB, USA) following the manufacturer's recommendations and index codes were added to attribute sequences to each sample. The clustering of the index-coded samples was performed on a cBot Cluster Generation System using PE Cluster Kit cBot-HS (Illumina) according to the manufacturer's instructions. After cluster generation, the library preparations were sequenced on an Illumina platform and paired-end reads were generated. Library preparation and sequencing were carried out by Novogene Europe, Cambridge, UK. […] Select target genes were analyzed by RT-PCR experiments with RNA from the samples used for the RNA-seq analysis. […]"}},
  "data": [
    {"smiles": "Fc1ccc(-c2cn3cc(C(F)(F)F)cc(Cl)c3n2)cc1", "note": "[Compound X15695, 8-Chloro-2-(4-fluorophenyl)-6-(trifluoromethyl)imidazo[1,2-a]pyridine]", "values": [
      {"measurement": "apoptosis", "setting": "MCF-7 and T47D cells", "value": "increased number of the cells in the late stage of apoptosis"},
      {"measurement": "ROS production", "setting": "[1]; MCF-7 cells", "value": "significant dose-dependent production of ROS"},
      {"measurement": "ROS production", "setting": "[1]; T47D cells", "value": "not in T47D cells"},
      {"measurement": "increase of aggregation temperature (Tagg) over vehicle", "setting": "BAG1L", "value": "1-2 °C"},
      {"measurement": "increase of aggregation temperature (Tagg) over vehicle", "setting": "BAG1", "value": 3, "unit": "°C"},
      {"measurement": "increase of aggregation temperature (Tagg) over vehicle", "setting": "BAG1M", "value": "1-2 °C"},
      {"measurement": "ERα downregulation over time", "setting": "ERα; MCF-7 cells, 1 µM, time course", "value": "rather slow but more sustained downregulation lasing over 24 to 48 h"},
      {"measurement": "concentration sufficient to downregulate ERα", "setting": "ERα; MCF-7 cells, 8 h", "value": "≤ 1", "unit": "nM"},
      {"measurement": "ERα level", "setting": "ERα; immunoblotting, MCF-7 and T47D cells, 48 h", "value": "dose-dependently decreased ERα level"},
      {"measurement": "attenuation of androgen-induced AR target gene expression", "setting": "[2]", "value": "the compound with the most inhibitory activity"}
    ]}
  ]
}
